In ChEMBL document CHEMBL1149644, “alpha,alpha-Cyclic aminoacids as useful scaffolds for the preparation of hNK(2) receptor antagonists” (Bioorg Med Chem Lett, 2007):
In brackets after ≈: the same amount, converted by molar mass.

Assays:
[1] = biological target: T1, Substance-K receptor (Homo sapiens, UniProt P21452); assay: Displacement of [125I]NKA from human NK2 expressed in CHO-K1 cells; format: cell-based
T1 sequence (P21452 whole entry): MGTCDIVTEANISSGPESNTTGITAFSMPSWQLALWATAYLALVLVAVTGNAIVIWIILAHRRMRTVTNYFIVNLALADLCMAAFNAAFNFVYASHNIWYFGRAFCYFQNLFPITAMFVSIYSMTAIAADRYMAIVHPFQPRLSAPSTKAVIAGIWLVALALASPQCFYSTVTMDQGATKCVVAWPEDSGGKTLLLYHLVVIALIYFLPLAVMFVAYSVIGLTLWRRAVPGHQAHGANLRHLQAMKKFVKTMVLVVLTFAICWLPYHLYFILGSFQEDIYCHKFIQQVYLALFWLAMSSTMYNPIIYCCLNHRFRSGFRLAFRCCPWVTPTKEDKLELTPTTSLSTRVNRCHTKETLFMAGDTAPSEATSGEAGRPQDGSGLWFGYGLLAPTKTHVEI

[2] = biological target: T2, Substance-K receptor (Cavia porcellus, UniProt Q64077); assay: […] activity at NK2 receptor in guinea pig smooth muscle; format: functional
T2 sequence (Q64077 whole entry): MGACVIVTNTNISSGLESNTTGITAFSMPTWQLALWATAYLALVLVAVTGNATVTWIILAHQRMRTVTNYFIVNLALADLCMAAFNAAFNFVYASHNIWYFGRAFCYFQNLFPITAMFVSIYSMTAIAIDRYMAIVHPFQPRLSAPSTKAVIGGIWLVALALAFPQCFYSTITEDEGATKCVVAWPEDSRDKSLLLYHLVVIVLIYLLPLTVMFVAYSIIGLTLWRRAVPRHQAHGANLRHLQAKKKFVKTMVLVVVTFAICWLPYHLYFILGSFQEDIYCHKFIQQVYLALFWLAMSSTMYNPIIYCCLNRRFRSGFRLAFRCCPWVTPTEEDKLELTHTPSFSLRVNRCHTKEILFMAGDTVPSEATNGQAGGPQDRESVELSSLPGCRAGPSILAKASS

[3] = Solubility at pH 7.4; format: physicochemical; conditions: buffer
[4] = Metabolic stability in guinea pig liver S9 fraction after 30 mins; format: ADME, subcellular, Cavia porcellus; conditions: read-out: Stability

Structure (SMILES) | Ki [1] | further results
CN1CCN(CCCNC(=O)[C@@H](Cc2ccccc2)NC(=O)C2(NC(=O)c3cc4ccccc4s3)CCCC2)CC1 | 2 nM | 
CN1CCN(CCCNC(=O)[C@@H](Cc2ccccc2)NC(=O)C2(NC(=O)c3cc4ccccc4s3)CCCCC2)CC1 | 3.98 nM | 
NCCCCCNC(=O)[C@H](Cc1ccccc1)NC(=O)C1(NC(=O)c2cc3ccccc3s2)CCCCC1 | 398 nM | 
NCCOCCOCCNC(=O)[C@H](Cc1ccccc1)NC(=O)C1(NC(=O)c2cc3ccccc3s2)CCCCC1 | 12.6 nM | 
NCc1ccc(CNC(=O)[C@H](Cc2ccccc2)NC(=O)C2(NC(=O)c3cc4ccccc4s3)CCCCC2)cc1 | 126 nM | 
CCC(CC)(NC(=O)c1cc2ccccc2s1)C(=O)N[C@@H](Cc1ccccc1)C(=O)NCCOCCOCCN | > 1000 nM | 
CC(C)(NC(=O)c1cc2ccccc2s1)C(=O)N[C@@H](Cc1ccccc1)C(=O)NCCOCCOCCN | 100 nM | 
NCCOCCOCCNC(=O)[C@H](Cc1ccccc1)NC(=O)CNC(=O)c1cc2ccccc2s1 | > 10000 nM | 
NCCCCCCNC(=O)C(Cc1ccccc1)NC(=O)C1(NC(=O)c2cc3ccccc3s2)CCCCC1 (stereo unspecified) | 251 nM | Ki [2]: > 1000 nM
CCN(CC)CCCNC(=O)C(Cc1ccccc1)NC(=O)C1(NC(=O)c2cc3ccccc3s2)CCCCC1 (stereo unspecified) | 100 nM | 
NCCCCCCCCNC(=O)C(Cc1ccccc1)NC(=O)C1(NC(=O)c2cc3ccccc3s2)CCCCC1 (stereo unspecified) | 126 nM | 
NCCOCCOCCNC(=O)[C@H](Cc1ccccc1)NC(=O)C1(NC(=O)c2cc3ccccc3s2)Cc2ccccc2C1 | 20 nM | 
CN1CCN(CCCNC(=O)[C@@H](Cc2ccccc2)NC(=O)C2(NC(=O)c3cc4ccccc4s3)Cc3ccccc3C2)CC1 | 2.51 nM | Ki [2]: 126 nM
CCN(CC)CCNC(=O)C(Cc1ccccc1)NC(=O)C1(NC(=O)c2cc3ccccc3s2)CCCCC1 (stereo unspecified) | 100 nM | 
CN1CCN(CCCNC(=O)[C@H](Cc2ccccc2)NC(=O)C2(NC(=O)c3cc4ccccc4s3)CCCCC2)CC1 | 100 nM | 
CCCCN(CCCC)CCCNC(=O)[C@@H](Cc1ccccc1)NC(=O)C1(NC(=O)c2cc3ccccc3s2)CCCCC1 |  | Ki [2]: 200 nM
O=C(NC1(C(=O)N[C@@H](Cc2ccccc2)C(=O)NCCCN2CCCC2)CCCCC1)c1cc2ccccc2s1 | 20 nM | 
O=C(NC1(C(=O)N[C@H](Cc2ccccc2)C(=O)NCCCN2CCCC2)CCCCC1)c1cc2ccccc2s1 | 3.98 nM | Ki [2]: > 1000 nM
O=C(NC1(C(=O)NC(Cc2ccccc2)C(=O)NCCN2CCOCC2)CCCCC1)c1cc2ccccc2s1 (stereo unspecified) | 100 nM | 
CN1CCCC1CCCNC(=O)C(Cc1ccccc1)NC(=O)C1(NC(=O)c2cc3ccccc3s2)CCCCC1 (stereo unspecified) | 50.1 nM | 
CC(C)C[C@@H](NC(=O)[C@H](Cc1ccccc1)NC(=O)C1(NC(=O)c2cc3ccccc3s2)CCCCC1)C(N)=O | 70.8 nM | 
CC(C)C[C@@H](NC(=O)[C@@H](Cc1ccccc1)NC(=O)C1(NC(=O)c2cc3ccccc3s2)CCCCC1)C(N)=O | 50.1 nM | 
O=C(NC1(C(=O)N[C@H](Cc2ccccc2)C(=O)NCCCN2CCOCC2)CCCC1)c1cc2ccccc2s1 |  | solubility [3]: 100 µg/mL (≈ 178 µM); remaining at 0.5 h [4]: 4%
NCCOCCOCCNC(=O)[C@H](Cc1ccccc1)NC(=O)C1(NC(=O)c2cc3ccccc3s2)CCc2ccccc21 (stereo partly specified) | 12.6 nM | 
NCCOCCOCCNC(=O)[C@H](Cc1ccccc1)NC(=O)C1(NC(=O)c2cc3ccccc3s2)CCc2ccccc2C1 (stereo partly specified) | 398 nM | 

Structure (SMILES) | Ki [1] | further results
CC(C)C[C@H](NC(=O)[C@H](Cc1ccccc1)NC(=O)C1(NC(=O)c2cc3ccccc3s2)CCCCC1)C(N)=O | 10000 nM | 
O=C(NC1(C(=O)N[C@@H](Cc2ccccc2)C(=O)NC2CC2)CCCCC1)c1cc2ccccc2s1 | 316 nM | 
CN(C)CCCNC(=O)[C@H](Cc1ccccc1)NC(=O)C1(NC(=O)c2cc3ccccc3s2)CCCCC1 | 316 nM | 
O=C(NC1(C(=O)N[C@H](Cc2ccccc2)C(=O)NCCCN2CCCC2)Cc2ccccc2C1)c1cc2ccccc2s1 | 1.26 nM | Ki [2]: 200 nM
CC1CCCCN1CCCNC(=O)[C@H](Cc1ccccc1)NC(=O)C1(NC(=O)c2cc3ccccc3s2)CCCCC1 (stereo partly specified) | 7.94 nM | Ki [2]: > 3160 nM
CC1CCCCN1CCCNC(=O)[C@@H](Cc1ccccc1)NC(=O)C1(NC(=O)c2cc3ccccc3s2)CCCCC1 (stereo partly specified) | 0.398 nM | Ki [2]: 200 nM
CCCCN(CCCC)CCCNC(=O)[C@@H](Cc1ccccc1)NC(=O)C1(NC(=O)c2cc3ccccc3s2)Cc2ccccc2C1 | 1.58 nM | Ki [2]: 200 nM
CCCCN(CCCC)CCCNC(=O)[C@H](Cc1ccccc1)NC(=O)C1(NC(=O)c2cc3ccccc3s2)CCCCC1 | 6.31 nM | 
O=C(NC1(C(=O)N[C@H](Cc2ccccc2)C(=O)NCCCN2CCOCC2)Cc2ccccc2C1)c1cc2ccccc2s1 | 2 nM | Ki [2]: 100 nM
NCCOCCOCCNC(=O)[C@H](Cc1ccccc1)NC(=O)C1(NC(=O)c2cc3ccccc3s2)CCCC1 | 50.1 nM | 
CC(C)N(CCNC(=O)C(Cc1ccccc1)NC(=O)C1(NC(=O)c2cc3ccccc3s2)CCCCC1)C(C)C (stereo unspecified) | 31.6 nM | 
O=C(NC1(C(=O)N[C@H](Cc2ccccc2)C(=O)NCCCN2CCOCC2)CCCCC1)c1cc2ccccc2s1 |  | Ki [2]: 100 nM
CCN(CC)CCCNC(=O)[C@H](Cc1ccccc1)NC(=O)C1(NC(=O)c2cc3ccccc3s2)CCCCC1 | 39.8 nM | 
NCCCCCCCNC(=O)C(Cc1ccccc1)NC(=O)C1(NC(=O)c2cc3ccccc3s2)CCCCC1 (stereo unspecified) | 100 nM | 
CC(C)C[C@H](NC(=O)[C@@H](Cc1ccccc1)NC(=O)C1(NC(=O)c2cc3ccccc3s2)CCCCC1)C(N)=O | 316 nM | 
O=C(NC1(C(=O)NC(Cc2ccccc2)C(=O)NCCN2CCCCC2)CCCCC1)c1cc2ccccc2s1 (stereo unspecified) | 63.1 nM | 
O=C(NC1(C(=O)N[C@@H](Cc2ccccc2)C(=O)NCCCN2CCOCC2)CCCCC1)c1cc2ccccc2s1 | 25.1 nM | 
CCCCN(CCCC)CCCNC(=O)[C@@H](Cc1ccccc1)NC(=O)C1(NC(=O)c2cc3ccccc3s2)CCc2ccccc21 (stereo in doubt; 45a) | 31.6 nM | 
CCCCN(CCCC)CCCNC(=O)[C@@H](Cc1ccccc1)NC(=O)C1(NC(=O)c2cc3ccccc3s2)CCc2ccccc21 (stereo in doubt; 45b) | 1.58 nM | 
O=C(NC1(C(=O)N[C@H](Cc2ccccc2)C(=O)NCCCN2CCCC2)CCc2ccccc21)c1cc2ccccc2s1 (stereo in doubt; 46a) | 6.31 nM | 
O=C(NC1(C(=O)N[C@H](Cc2ccccc2)C(=O)NCCCN2CCCC2)CCc2ccccc21)c1cc2ccccc2s1 (stereo in doubt; 46b) | 1.26 nM | 
O=C(NC1(C(=O)N[C@H](Cc2ccccc2)C(=O)NCCCN2CCOCC2)CCc2ccccc21)c1cc2ccccc2s1 (stereo in doubt; 47a) | 100 nM | 
O=C(NC1(C(=O)N[C@H](Cc2ccccc2)C(=O)NCCCN2CCOCC2)CCc2ccccc21)c1cc2ccccc2s1 (stereo in doubt; 47b) | 2 nM | Ki [2]: 20 nM
CN1CCN(CCCNC(=O)[C@@H](Cc2ccccc2)NC(=O)C2(NC(=O)c3cc4ccccc4s3)CCc3ccccc32)CC1 (stereo in doubt; 48a) | > 100 nM | 
CN1CCN(CCCNC(=O)[C@@H](Cc2ccccc2)NC(=O)C2(NC(=O)c3cc4ccccc4s3)CCc3ccccc32)CC1 (stereo in doubt; 48b) | 1 nM | Ki [2]: 25.1 nM
